{"source": "patent US7618643B2", "about": "“Growth factor delivery system for the healing of wounds and the prevention of inflammation and disease” (DirectContact LLC, priority 2002, dated 2009)", "key": {"[1]": {"system": "New Zealand white rabbits, eyes abraded with a needle", "experiment": "rabbit model, eyes abraded with a needle, medicated contact lens in right eye", "assay_type": "in vivo", "method": "New Zealand white rabbits were anesthetized, and then both eyes were abraded with a needle. A control contact lens was placed in the left eye, and a medicated contact lens was placed in the right eye of each rabbit for up to 4 hours prior to euthanasia. Control contact lenses (etafilcon A, an ionic lens with 58% water content) were washed with phosphate-buffered saline (PBS) prior to insertion. […] Rabbits were visually scored on a 0-4 scale (0 being the best and 4 being the worst) for corneal edema (which is a measure of wound healing), inflammation, and exudate production."}, "[2]": {"system": "rabbit corneal epithelial cells", "experiment": "in vitro wound closure, epithelial cell sheets contacted with contact lenses", "assay_type": "cell-based", "settings": "for healing: lens soaked in 10 ng/μL EGF", "experimental": "(§1) Ocular cells were placed into a sterile plastic dish. This dish contained a 5-mm disk. The purpose of the disk was to prevent cells from growing in the covered area. When the disk was removed, a 5-mm “wound” or “hole” was present.\n(§2) Contact lenses were then added to these cell sheets with the wounds. The lenses were left in contact with the cell sheets for a minimum of 30 minutes. Minimal medium was used to maintain the cell cultures. Cells were incubated at 35° C.±2° C. in 5% CO2. […] The contact lenses used were polymacon B, vifilcon A, and lidofilcon A hydrogel polymers.\n(§3) The cell sheets were then viewed over time, and the diameter of the hole was measured.\n(§4) The results are expressed in terms of closure of the in vitro wound over time.\nEpithelial Cells and Tissue. Epithelial (rabbit corneal epithelial cells) cells were seeded on a dish and contacted with control and EGF-containing contact lenses. […] At 72 hours, there was a 43% difference in the closure rate between the EGF-treated epithelial tissue and the controls. The hydrogel material that was used was vifilcon A, an ionic polymer with a water content of 55%.\n(§5) Closure rates were calculated by direct measurement of the diameter of the wound. Measurements were taken daily."}, "[3]": {"system": "bovine corneal endothelial cells", "experiment": "in vitro wound closure, endothelial cell sheets contacted with contact lenses", "assay_type": "cell-based", "experimental": "as §1, §2, §3, §4, §5\nEndothelial Cells and Tissue."}, "[4]": {"system": "recurring epithelial defect", "experiment": "human testing of medicated lens", "assay_type": "in vivo", "settings": "polymacon B lens soaked in 400 ppb EGF for 24 hours; one human patient; one administration", "experimental": "This lens was placed in a human patient suffering from a recurring epithelial defect that was not responsive to traditional medical treatments. […] Desirably treatment lasts for at least one hour. This type of injury is normally treated by the repeated introduction of eye drops, sometimes as often as every 4-5 minutes. A contact lens of the present invention, however, was able to produce a positive result with only one administration."}, "[5]": {"settings": "contact lens, 400 ppb HGH soak, right eye"}, "[6]": {"settings": "vifilcon A lens soaked in 10 ng/μL EGF, 48 hours"}, "[7]": {"settings": "vifilcon A lens soaked in 10 ng/μL EGF, 72 hours"}, "[8]": {"settings": "polymacon B lens soaked in 10 ng/μL EGF, 72 hours"}}}
{"substance": "human growth hormone [HGH]", "values": [{"measurement": "toxicity to the ocular tissue", "setting": "[1]; contact lens, 400 ppb HGH soak", "value": "no toxicity was observed"}, {"measurement": "inflammation compared to control eyes", "setting": "[1]; [5]", "value": "reduction in inflammation"}, {"measurement": "wound healing compared to control eyes", "setting": "[1]; [5]", "value": "increased wound healing"}]}
{"substance": "epidermal growth factor [EGF]", "values": [{"measurement": "healing", "setting": "[2]; 48 hours", "value": 14, "unit": "%"}, {"measurement": "healing", "setting": "[2]; 72 hours", "value": 25, "unit": "%"}, {"measurement": "closure rate difference between controls and EGF treated", "setting": "[2]; vifilcon A lens soaked in 5.0 ng/μL EGF, 48 hours", "value": 21, "unit": "%"}, {"measurement": "difference in the closure rate", "setting": "[2]; vifilcon A lens soaked in 5.0 ng/μL EGF, 72 hours", "value": 21, "unit": "%"}, {"measurement": "difference in the closure rate between EGF-treated and non-EGF treated cells", "setting": "[2]; [6]", "value": 25, "unit": "%"}, {"measurement": "difference in the closure rate between EGF-treated and controls", "setting": "[2]; [7]", "value": 43, "unit": "%"}, {"measurement": "difference in the healing rates compared to a wound not contacted with any lens", "setting": "[2]; vifilcon A lens with EGF, 48 hours", "value": 31, "unit": "%"}, {"measurement": "increase in the healing rate (wound closure rate) compared to controls", "setting": "[3]; lidofilcon A lens soaked in 10 ng/μL EGF, 48 hours", "value": 54, "unit": "%"}, {"measurement": "difference in healing rate compared to controls", "setting": "[3]; lidofilcon A lens soaked in 10 ng/μL EGF, 72 hours", "value": 44, "unit": "%"}, {"measurement": "difference in closure between treated and untreated groups", "setting": "[3]; [8]", "value": 62, "unit": "%"}, {"measurement": "wound closed", "setting": "[3]; [8]", "value": 80, "unit": "%"}, {"measurement": "difference in closure rate between EGF treated group and controls", "setting": "[3]; vifilcon A lens soaked in 5 ng/μL EGF, 48 hours", "value": 31, "unit": "%"}, {"measurement": "tissue healed", "setting": "[3]; vifilcon A lens soaked in 5 ng/μL EGF, 72 hours", "value": 53, "unit": "%"}, {"measurement": "difference in healing rates compared to a control", "setting": "[3]; [6]", "value": 73, "unit": "%"}, {"measurement": "tissue healed", "setting": "[3]; [7]", "value": "completely healed"}, {"measurement": "wound healing compared to control eyes", "setting": "[1]; etafilcon A lenses soaked in 400 ppb EGF, first two hours after treatment", "value": "healed wounds at an accelerated rate"}, {"measurement": "toxicity in rabbits", "setting": "[1]; etafilcon A lenses soaked in 400 ppb, 4 ppm or 10 ppm EGF", "value": "No toxicity was observed"}, {"measurement": "clinical efficacy (wound healing)", "setting": "[4]", "value": "Clinical efficacy (i.e., wound healing) was observed"}]}
